Series [1] is described as follows: Toxicity in Crl:CD Sprague-Dawley rat assessed as atrophy of spleen at 100 mg/kg, po administered daily for 14 days by hematoxylin and eosin staining based analysis. Type of series: organism-based. As to conditions: in vivo, 336 h, time 14 day.
Series [2] can be described thus: Toxicity in Crl:CD Sprague-Dawley rat assessed as hemoglobin level in blood at 100 mg/kg, po administered daily for 14 days (reference value: 13.5 +/-0.386 g/dL). It is filed as organism-based. As to conditions: in vivo, 336 h, time 14 day.
Series [3] in a line: Toxicity in Crl:CD Sprague-Dawley rat assessed as hypertrophy of zona fasciculata/reticularis cells in adrenal at 100 mg/kg, po administered daily for 14 days by hematoxylin and eosin staining based analysis. Type of series: organism-based. To be noted: in vivo, 336 h, time 14 day.
Series [4] is described as follows: Cmax in Crl:CD Sprague-Dawley rat at 100 mg/kg, po administered daily for 14 days by LC/MS/MS analysis. It is filed as ADME, organism-based. To be noted: in vivo, 336 h, time 14 day.
Series [5] can be described thus: Toxicity in Crl:CD Sprague-Dawley rat assessed as inorganic phosphorus level in blood at 100 mg/kg, po administered daily for 14 days (reference value: 6.02+/-0.628 mg/dL). Type of series: organism-based. As to conditions: in vivo, 336 h, time 14 day.
Series [6] is described as follows: Toxicity in Crl:CD Sprague-Dawley rat assessed as hematocrit level in blood at 100 mg/kg, po administered daily for 14 days (reference value: 41.2 +/-[…]). It is filed as organism-based. As to conditions: in vivo, 336 h, time 14 day.
Series [7] in a line: Toxicity in Crl:CD Sprague-Dawley rat assessed as alkaline phosphatase level in blood at 100 mg/kg, po administered daily for 14 days (reference value: 1340+/-199 U/L). To be noted: in vivo, 336 h, time 14 day. Type of series: organism-based.
The nature of series [8]: Toxicity in Crl:CD Sprague-Dawley rat assessed as calcium level in blood at 100 mg/kg, po administered daily for 14 days (reference value: 10.1 +/-0.096 mg/dL). It is filed as organism-based. As to conditions: in vivo, 336 h, time 14 day.
The nature of series [9]: Toxicity in Crl:CD Sprague-Dawley rat assessed as potassium level in blood at 100 mg/kg, po administered daily for 14 days (reference value: 4.18+/-0.189 mEq/L). Type of series: organism-based. To be noted: in vivo, 336 h, time 14 day.
A short description of series [10]: Toxicity in Crl:CD Sprague-Dawley rat assessed as decrease in body weight at 100 mg/kg, po administered daily for 14 days. Type of series: organism-based. To be noted: in vivo, 336 h, time 14 day.
A short description of series [11]: Toxicity in Crl:CD Sprague-Dawley rat assessed as mean corpuscular volume in blood at 100 mg/kg, po administered daily for 14 days (reference value: 61.5 +/-1.92 fL). It is filed as organism-based. To be noted: in vivo, 336 h, time 14 day.
A short description of series [12]: Toxicity in Crl:CD Sprague-Dawley rat assessed as creatine kinase level in blood at 100 mg/kg, po administered daily for 14 days (reference value: 164 +/-5U/L). It is filed as organism-based. To be noted: in vivo, 336 h, time 14 day.
Series [13] concerns the target Interleukin-1 receptor-associated kinase 1 (Homo sapiens) (UniProt P51617). The series can be described thus: Inhibition of N-terminal GST-fused truncated human IRAK1 (194 to 712 residues) expressed in baculovirus expression system using SRPKtide as substrate at 1 uM in presence of ATP by IMAP assay.
The nature of series [14]: Toxicity in Crl:CD Sprague-Dawley rat assessed as creatinine level in blood at 100 mg/kg, po administered daily for 14 days (reference value: 0.223 +/-[…]). Type of series: organism-based. As to conditions: in vivo, 336 h, time 14 day.
Another series deals with Hs 766. The series can be described thus: Antitumor activity against human Hs766T cells assessed as cell growth inhibition treated for 10 to 15 days. It is filed as functional. To be noted: time 10-15 day.
In series [15] the target is Ribosomal protein S6 kinase alpha-2 (Homo sapiens) (UniProt Q15349). The series can be described thus: Inhibition of N-terminal GST-fused human full length RSK3 (1 to 733 residues) expressed in baculovirus expression system using S6K peptide(N-FL) as substrate at 1 uM in presence of ATP by Mobility shift assay.
The subject of a further series is HL-60. The series can be described thus: Antitumor activity against human HL-60 cells assessed as cell growth inhibition treated for 10 to 15 days. To be noted: time 10-15 day. Type of series: functional.
The next series has as its system RL. The series can be described thus: Antitumor activity against human RL cells assessed as cell growth inhibition treated for 10 to 15 days. Type of series: functional. As to conditions: time 10-15 day.
Series [16] deals with Protein arginine N-methyltransferase 8 (Homo sapiens, UniProt Q9NR22). The series can be described thus: Inhibition of human PRMT8 using Histone H4 and [3H]SAM as substrate incubated for 30 mins to 1 hr by HotSpot kinase assay.
For the next series, the system named is NCI-H2081. The series can be described thus: Antitumor activity against human NCI-H2081 cells assessed as cell growth inhibition treated for 10 to 15 days. Type of series: functional. As to conditions: time 10-15 day.
In the next series the test system is Kasumi 1. The series can be described thus: Antitumor activity against human Kasumi 1 cells assessed as cell growth inhibition treated for 10 to 15 days. It is filed as functional. To be noted: time 10-15 day.
A short description of series [17]: Antitumor activity against human COV434 cells assessed as cell growth inhibition treated for 10 to 15 days. Type of series: functional. To be noted: time 10-15 day.
A further series concerns SNU-398. The series can be described thus: Antitumor activity against human SNU-398 cells assessed as cell growth inhibition treated for 10 to 15 days. As to conditions: time 10-15 day. It is filed as functional.
In a further series the test system is LS180. The series can be described thus: Antitumor activity against human LS180 cells assessed as cell growth inhibition treated for 10 to 15 days. As to conditions: time 10-15 day. Type of series: functional.
The test system of another series is HCC1187. The series can be described thus: Antitumor activity against human HCC1187 cells assessed as cell growth inhibition treated for 10 to 15 days. To be noted: time 10-15 day. It is filed as functional.
The subject of another series is HGC-27. The series can be described thus: Antitumor activity against human HGC-27 cells assessed as cell growth inhibition treated for 10 to 15 days. It is filed as functional. To be noted: time 10-15 day.
A further series has as its system RMG-I. The series can be described thus: Antitumor activity against human RMG-I cells assessed as cell growth inhibition treated for 10 to 15 days. Type of series: functional. As to conditions: time 10-15 day.
The test system of the next series is NCI-H1694. The series can be described thus: Antitumor activity against human NCI-H1694 cells assessed as cell growth inhibition treated for 10 to 15 days. It is filed as functional. To be noted: time 10-15 day.
The test system of the next series is MDA-MB-361. The series can be described thus: Antitumor activity against human MDA-MB-361 cells assessed as cell growth inhibition treated for 10 to 15 days. Type of series: functional. To be noted: time 10-15 day.
Series [18] concerns the target Histone-lysine N-methyltransferase PRDM9 (Homo sapiens, UniProt Q9NQV7). The series can be described thus: Inhibition of human PRDM9 using Histone H3 and [3H]SAM as substrate incubated for 30 mins to 1 hr by HotSpot kinase assay.
Series [19] can be described thus: Antitumor activity against human BCP-1 cells assessed as cell growth inhibition treated for 10 to 15 days. To be noted: time 10-15 day. Type of series: functional.
Another series deals with A204. The series can be described thus: Antitumor activity against human A204 cells assessed as cell growth inhibition treated for 10 to 15 days. It is filed as functional. As to conditions: time 10-15 day.
The next series has as its system DMS-114. The series can be described thus: Antitumor activity against human DMS-114 cells assessed as cell growth inhibition treated for 10 to 15 days. To be noted: time 10-15 day. Type of series: functional.
In another series the test system is Caov-3 cell line. The series can be described thus: Antitumor activity against human Caov-3 cell line assessed as cell growth inhibition treated for 10 to 15 days. It is filed as functional. As to conditions: time 10-15 day.
The subject of a further series is HCC1806. The series can be described thus: Antitumor activity against human HCC1806 cells assessed as cell growth inhibition treated for 10 to 15 days. To be noted: time 10-15 day. Type of series: functional.
A further series relates to ZR-75-30. The series can be described thus: Antitumor activity against human ZR-75-30 cells assessed as cell growth inhibition treated for 10 to 15 days. Type of series: functional. As to conditions: time 10-15 day.
Series [20] is described as follows: Antitumor activity against human OVMANA cells assessed as cell growth inhibition treated for 10 to 15 days. Type of series: functional. As to conditions: time 10-15 day.
A further series has as its system SNU-16. The series can be described thus: Antitumor activity against human SNU-16 cells assessed as cell growth inhibition treated for 10 to 15 days. Type of series: functional. To be noted: time 10-15 day.
For a further series, the system named is MKN-7. The series can be described thus: Antitumor activity against human MKN-7 cells assessed as cell growth inhibition treated for 10 to 15 days. As to conditions: time 10-15 day. Type of series: functional.
Another series has as its system TCC-SUP. The series can be described thus: Antitumor activity against human TCC-SUP cells assessed as cell growth inhibition treated for 10 to 15 days. Type of series: functional. To be noted: time 10-15 day.
Series [21] has as its target Histone-lysine N-methyltransferase 2C (Homo sapiens, UniProt Q8NEZ4). The series can be described thus: Inhibition of human MLL3 using Core Histone and [3H]SAM as substrate incubated for 30 mins to 1 hr by HotSpot kinase assay.

Chain of Histone-lysine N-methyltransferase 2C (Q8NEZ4 whole entry): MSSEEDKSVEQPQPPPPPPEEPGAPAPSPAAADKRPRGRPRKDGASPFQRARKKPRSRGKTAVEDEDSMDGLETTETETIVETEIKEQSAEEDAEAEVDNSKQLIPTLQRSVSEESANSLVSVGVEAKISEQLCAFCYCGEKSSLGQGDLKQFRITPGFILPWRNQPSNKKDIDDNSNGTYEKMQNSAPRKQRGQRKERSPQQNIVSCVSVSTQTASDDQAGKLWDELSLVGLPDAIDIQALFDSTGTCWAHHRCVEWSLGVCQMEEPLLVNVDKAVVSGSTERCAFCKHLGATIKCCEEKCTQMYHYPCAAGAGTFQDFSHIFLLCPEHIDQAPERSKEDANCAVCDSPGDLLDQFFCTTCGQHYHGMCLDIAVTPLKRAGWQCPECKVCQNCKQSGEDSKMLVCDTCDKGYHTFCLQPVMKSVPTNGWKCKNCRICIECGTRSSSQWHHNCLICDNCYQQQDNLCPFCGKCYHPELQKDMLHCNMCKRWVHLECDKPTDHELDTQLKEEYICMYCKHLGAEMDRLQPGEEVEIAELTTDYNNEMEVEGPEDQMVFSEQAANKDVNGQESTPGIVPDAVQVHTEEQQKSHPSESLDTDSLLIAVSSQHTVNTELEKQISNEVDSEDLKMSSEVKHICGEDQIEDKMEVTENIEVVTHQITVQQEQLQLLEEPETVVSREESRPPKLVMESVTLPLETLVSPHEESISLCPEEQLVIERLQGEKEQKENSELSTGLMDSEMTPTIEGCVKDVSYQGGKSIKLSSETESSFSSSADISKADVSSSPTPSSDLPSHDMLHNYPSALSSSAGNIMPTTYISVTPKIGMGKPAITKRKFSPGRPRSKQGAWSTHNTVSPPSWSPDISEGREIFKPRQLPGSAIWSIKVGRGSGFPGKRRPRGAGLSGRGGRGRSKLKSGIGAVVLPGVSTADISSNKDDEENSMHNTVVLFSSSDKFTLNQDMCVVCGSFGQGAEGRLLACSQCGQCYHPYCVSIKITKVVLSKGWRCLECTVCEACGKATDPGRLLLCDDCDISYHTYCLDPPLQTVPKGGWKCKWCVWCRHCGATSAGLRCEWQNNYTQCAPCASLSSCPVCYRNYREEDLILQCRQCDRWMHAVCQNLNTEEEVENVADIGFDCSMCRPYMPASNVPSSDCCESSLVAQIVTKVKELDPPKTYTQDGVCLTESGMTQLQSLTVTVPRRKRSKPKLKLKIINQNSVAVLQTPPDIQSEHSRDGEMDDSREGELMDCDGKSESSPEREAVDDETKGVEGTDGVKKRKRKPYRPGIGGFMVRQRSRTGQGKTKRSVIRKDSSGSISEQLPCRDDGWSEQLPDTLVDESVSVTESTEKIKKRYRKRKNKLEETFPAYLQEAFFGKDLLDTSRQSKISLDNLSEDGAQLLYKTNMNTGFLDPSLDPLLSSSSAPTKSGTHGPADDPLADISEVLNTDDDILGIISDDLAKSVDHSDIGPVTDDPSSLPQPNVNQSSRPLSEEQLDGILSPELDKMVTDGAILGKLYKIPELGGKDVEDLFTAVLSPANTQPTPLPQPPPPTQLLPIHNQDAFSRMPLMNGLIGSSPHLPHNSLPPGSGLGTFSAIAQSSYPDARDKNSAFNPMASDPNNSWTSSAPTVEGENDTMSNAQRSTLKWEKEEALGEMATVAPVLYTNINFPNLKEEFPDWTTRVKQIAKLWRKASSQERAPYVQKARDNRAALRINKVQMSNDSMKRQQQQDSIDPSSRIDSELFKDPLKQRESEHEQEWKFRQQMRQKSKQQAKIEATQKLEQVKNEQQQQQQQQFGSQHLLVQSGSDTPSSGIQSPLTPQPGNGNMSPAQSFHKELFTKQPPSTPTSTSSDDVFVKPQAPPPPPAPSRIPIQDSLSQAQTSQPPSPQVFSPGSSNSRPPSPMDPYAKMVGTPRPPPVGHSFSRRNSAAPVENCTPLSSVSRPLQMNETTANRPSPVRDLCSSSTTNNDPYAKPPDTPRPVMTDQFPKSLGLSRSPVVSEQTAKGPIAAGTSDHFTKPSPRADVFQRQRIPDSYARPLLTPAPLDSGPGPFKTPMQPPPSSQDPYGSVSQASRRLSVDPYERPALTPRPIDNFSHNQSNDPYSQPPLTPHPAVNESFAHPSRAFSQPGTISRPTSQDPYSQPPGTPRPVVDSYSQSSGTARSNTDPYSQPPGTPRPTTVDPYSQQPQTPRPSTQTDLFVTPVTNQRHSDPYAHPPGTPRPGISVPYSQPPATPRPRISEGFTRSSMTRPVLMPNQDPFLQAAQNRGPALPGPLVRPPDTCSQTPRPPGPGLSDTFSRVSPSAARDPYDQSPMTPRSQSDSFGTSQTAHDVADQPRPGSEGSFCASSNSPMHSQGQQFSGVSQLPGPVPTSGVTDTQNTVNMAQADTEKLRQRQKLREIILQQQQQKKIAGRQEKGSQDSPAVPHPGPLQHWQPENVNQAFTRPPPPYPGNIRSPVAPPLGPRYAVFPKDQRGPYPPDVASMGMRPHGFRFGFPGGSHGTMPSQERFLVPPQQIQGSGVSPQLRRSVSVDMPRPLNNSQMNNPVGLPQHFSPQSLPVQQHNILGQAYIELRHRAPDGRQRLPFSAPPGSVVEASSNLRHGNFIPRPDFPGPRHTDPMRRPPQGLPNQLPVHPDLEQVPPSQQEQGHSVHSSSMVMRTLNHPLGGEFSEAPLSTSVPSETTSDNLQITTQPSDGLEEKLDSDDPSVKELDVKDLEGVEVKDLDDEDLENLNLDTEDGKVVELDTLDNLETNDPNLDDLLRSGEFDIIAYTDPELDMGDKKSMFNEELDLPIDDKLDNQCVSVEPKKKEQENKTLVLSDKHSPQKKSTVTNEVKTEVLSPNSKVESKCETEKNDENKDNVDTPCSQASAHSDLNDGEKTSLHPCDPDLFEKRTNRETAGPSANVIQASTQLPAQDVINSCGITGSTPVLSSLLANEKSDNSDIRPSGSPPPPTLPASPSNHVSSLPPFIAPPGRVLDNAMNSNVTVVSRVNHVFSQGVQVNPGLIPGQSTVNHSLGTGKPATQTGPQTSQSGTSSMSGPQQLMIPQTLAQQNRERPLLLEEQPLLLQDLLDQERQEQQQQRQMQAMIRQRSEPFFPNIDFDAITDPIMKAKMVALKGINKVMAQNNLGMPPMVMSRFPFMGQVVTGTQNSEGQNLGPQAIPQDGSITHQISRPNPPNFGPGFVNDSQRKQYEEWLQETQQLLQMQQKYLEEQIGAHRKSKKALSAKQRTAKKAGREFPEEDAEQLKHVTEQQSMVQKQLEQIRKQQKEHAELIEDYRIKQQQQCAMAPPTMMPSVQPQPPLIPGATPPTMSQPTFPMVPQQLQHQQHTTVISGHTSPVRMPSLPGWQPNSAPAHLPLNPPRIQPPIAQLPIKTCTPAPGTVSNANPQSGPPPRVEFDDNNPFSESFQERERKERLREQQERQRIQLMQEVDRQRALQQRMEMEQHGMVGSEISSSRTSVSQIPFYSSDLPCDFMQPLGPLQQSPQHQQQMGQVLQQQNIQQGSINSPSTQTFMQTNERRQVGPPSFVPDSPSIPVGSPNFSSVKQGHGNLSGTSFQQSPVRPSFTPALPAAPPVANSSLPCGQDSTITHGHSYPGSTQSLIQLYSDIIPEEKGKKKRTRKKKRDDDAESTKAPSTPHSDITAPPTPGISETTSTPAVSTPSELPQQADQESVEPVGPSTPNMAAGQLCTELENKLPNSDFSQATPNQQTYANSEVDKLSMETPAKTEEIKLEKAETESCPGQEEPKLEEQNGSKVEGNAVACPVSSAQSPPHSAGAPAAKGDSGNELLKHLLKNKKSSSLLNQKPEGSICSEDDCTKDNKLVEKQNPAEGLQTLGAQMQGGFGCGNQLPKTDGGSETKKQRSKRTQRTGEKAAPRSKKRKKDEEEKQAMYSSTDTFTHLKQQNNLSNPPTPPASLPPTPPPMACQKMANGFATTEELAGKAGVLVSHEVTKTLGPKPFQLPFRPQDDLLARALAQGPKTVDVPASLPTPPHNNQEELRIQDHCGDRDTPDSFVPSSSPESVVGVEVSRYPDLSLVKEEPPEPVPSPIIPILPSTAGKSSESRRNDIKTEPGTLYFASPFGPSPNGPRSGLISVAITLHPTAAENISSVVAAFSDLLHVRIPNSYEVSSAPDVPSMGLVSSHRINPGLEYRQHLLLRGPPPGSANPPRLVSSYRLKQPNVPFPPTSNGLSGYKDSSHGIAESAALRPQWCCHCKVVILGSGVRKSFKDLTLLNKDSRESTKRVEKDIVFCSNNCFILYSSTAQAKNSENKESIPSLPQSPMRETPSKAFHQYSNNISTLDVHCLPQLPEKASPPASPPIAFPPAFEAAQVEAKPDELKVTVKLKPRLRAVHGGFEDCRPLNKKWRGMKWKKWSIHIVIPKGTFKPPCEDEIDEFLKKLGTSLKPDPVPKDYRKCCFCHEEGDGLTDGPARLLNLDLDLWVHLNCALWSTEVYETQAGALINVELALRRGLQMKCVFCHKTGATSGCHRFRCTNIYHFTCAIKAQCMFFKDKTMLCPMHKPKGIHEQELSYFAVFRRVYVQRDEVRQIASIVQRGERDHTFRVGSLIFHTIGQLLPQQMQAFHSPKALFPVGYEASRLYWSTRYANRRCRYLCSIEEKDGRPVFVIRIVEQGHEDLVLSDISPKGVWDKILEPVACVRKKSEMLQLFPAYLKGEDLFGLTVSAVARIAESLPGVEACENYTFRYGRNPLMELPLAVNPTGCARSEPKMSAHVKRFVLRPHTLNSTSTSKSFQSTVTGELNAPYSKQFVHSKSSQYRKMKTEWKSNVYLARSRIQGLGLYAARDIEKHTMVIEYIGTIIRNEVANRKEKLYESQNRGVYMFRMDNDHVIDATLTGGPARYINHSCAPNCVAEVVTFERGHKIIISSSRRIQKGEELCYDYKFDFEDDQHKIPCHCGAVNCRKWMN

By Cmax is commonly meant the peak of the concentration-time curve. As a reminder, the inhibition is the drop in the measured response relative to a control, in per cent. In the case of `Cc1cc(C)c(CNC(=O)c2cc(Br)c3c(c2C)O[C@@](C)([C@H]2CC[C@H](N(C)C)CC2)O3)c(=O)[nH]1`, the Activity result in series [1] is “Toxic”; in [2], 13 g/dL; in series [3], “Toxic”; in [5], 5.97 mg/dL; in series [6], 40.1%; in [7], 1120 U/L. For the same molecule, the Activity is 9.88 mg/dL in series [8]; 4.2 mEq/L in [9]; “Toxic” in [10]; 60.9 fL in series [11]; 186 U/L in [12]; 0.238 mg/dL in series [14]. In series [4], this molecule gave a Cmax of 2.44 µM. In [13], the inhibition was -4.5%.
By GI50 is commonly meant the concentration that inhibits growth by half. The IC50 is the concentration that gives 50% inhibition. As to `Cc1cc(C)c(CNC(=O)c2cc(Cl)c3c(c2C)O[C@@](C)([C@H]2CC[C@H](N(C)C)CC2)O3)c(=O)[nH]1` [VALEMETOSTAT], the GI50 with Hs 766 is over 1 µM; with HL-60, over 1 µM; in the series on RL it was over 1 µM; in the series with NCI-H2081, 0.982 µM; in the series with Kasumi 1, 0.07 µM; in series [17], 0.0015 µM. For the same molecule, the GI50 was 0.00207 µM with SNU-398; 0.0955 µM in the series on LS180; over 1 µM with HCC1187; over 1 µM with HGC-27; over 1 µM in the series on RMG-I; over 1 µM in the series on NCI-H1694. Also, the GI50 with MDA-MB-361 is 0.109 µM; in [19], over 1 µM; in the series on A204, 0.0292 µM; in the series with DMS-114, 0.0055 µM; with Caov-3 cell line, over 1 µM; in the series with HCC1806, over 1 µM. Besides, the GI50 (in the series with ZR-75-30; in series [20]; in the series on SNU-16; in the series on MKN-7; in the series on TCC-SUP) was over 1 µM in each case. The inhibition in series [15] is -3.9%. Moreover, the IC50 in [16], in series [18] and in series [21] was 100 µM each time.

Values taken from ChEMBL document CHEMBL5647694, “Novel orally bioavailable EZH1/2 dual inhibitors with greater antitumor efficacy than an EZH2 selective inhibitor” (Cancer Sci, 2017).
